In US10259810B2, “N-sulfonylated pyrazolo[3,4-b]pyridin-6-carboxamides and method of use” (AbbVie S.à.r.l., priority 2015, dated 2019):

Key:
ΔF508-CFTR [1] = molecular target: T1, ΔF508-CFTR (Homo sapiens, UniProt P13569, DEL508-508); assay: CFTR cell surface levels using HRP-tagged ΔF508-CFTR expressing CFBE cells, in the presence of a co-corrector; type: cell-based; conditions: HRP-tagged ΔF508-CFTR CFBE cells, in the presence of 3 μM co-corrector; for EC50: read-out: EC50
T1 construct: host or cells: CFBE41o-, doxycycline-inducible
How it was run: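 Chemiluminescent read-out of surface HRP (15 min, dark) after PBS washes. Activity is normalized as 100×(sample−DMSO)/(3 μM co-corrector alone−DMSO).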

ΔF508-CFTR [2] = molecular target: T1, ΔF508-CFTR; assay: CFTR cell surface levels using HRP-tagged ΔF508-CFTR expressing CFBE cells, intrinsic corrector capacity; type: cell-based; set-up: % Activation: concentration or dose not given beside the values; conditions: HRP-tagged ΔF508-CFTR expressing CFBE41o- cells, compound alone (intrinsic corrector capacity), 20 hours at 33° C.; for EC50: read-out: EC50
How it was run: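 Read-out: chemiluminescent HRP activity of ECL4-HRP-tagged ΔF508-CFTR at the cell surface, 15 min substrate in dark. Normalized as 100×(sample−DMSO)/(positive control−DMSO).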

T1 sequence (P13569 with tags, fused parts or gaps DEL508-508): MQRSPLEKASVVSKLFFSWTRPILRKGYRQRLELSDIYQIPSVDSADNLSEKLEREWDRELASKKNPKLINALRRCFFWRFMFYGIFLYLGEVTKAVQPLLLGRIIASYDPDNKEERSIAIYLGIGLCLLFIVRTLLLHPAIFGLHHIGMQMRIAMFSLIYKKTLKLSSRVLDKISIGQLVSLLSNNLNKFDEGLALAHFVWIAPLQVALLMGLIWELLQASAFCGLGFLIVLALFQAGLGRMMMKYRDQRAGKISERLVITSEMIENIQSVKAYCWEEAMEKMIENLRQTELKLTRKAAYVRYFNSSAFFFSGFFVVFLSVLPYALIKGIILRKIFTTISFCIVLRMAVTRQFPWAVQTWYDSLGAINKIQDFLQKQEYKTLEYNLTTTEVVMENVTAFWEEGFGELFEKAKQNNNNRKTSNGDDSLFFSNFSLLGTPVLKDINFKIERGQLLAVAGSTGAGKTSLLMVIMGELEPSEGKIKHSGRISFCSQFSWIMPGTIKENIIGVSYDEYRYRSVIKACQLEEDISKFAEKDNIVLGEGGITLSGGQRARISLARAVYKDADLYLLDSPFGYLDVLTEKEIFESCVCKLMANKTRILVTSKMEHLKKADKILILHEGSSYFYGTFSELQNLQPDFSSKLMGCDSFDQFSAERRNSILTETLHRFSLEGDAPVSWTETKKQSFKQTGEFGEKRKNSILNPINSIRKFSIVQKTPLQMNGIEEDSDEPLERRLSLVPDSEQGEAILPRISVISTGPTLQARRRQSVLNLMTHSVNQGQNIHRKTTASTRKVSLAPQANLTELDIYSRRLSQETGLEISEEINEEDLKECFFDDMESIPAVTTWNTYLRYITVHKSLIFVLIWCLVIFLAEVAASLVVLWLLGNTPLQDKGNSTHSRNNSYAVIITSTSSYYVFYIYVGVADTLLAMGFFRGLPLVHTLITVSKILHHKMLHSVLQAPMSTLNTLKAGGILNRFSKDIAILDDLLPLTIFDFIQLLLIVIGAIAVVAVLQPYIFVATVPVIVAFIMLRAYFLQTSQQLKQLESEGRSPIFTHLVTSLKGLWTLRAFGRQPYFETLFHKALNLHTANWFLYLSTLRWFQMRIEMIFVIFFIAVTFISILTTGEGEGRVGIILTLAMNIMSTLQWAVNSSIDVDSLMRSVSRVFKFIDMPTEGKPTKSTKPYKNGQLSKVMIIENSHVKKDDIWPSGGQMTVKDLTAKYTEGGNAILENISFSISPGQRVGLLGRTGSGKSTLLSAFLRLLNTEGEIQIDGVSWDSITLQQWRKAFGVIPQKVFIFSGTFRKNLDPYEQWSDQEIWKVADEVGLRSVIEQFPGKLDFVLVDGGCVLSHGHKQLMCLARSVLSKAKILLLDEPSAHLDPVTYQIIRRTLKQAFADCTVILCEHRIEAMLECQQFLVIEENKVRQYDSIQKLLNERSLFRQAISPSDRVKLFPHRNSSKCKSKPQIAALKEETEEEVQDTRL

CCOC(=O)N1CCC(NS(=O)(=O)NC(=O)c2cc(N3CCC(N4CCOCC4)CC3)c3c(C4CCC4)nn(-c4ccccc4)c3n2)CC1 [Compound 433, ethyl 4-[({3-cyclobutyl-4-[4-(morpholin-4-yl)piperidin-1-yl]-1-phenyl-1H-pyrazolo[3,4-b]pyridine-6-carbonyl}sulfamoyl)amino]piperidine-1-carboxylate]
% Activation (ΔF508-CFTR [1]): 563.8% | EC50 (ΔF508-CFTR [1]): 49 nM | % Activation (ΔF508-CFTR [2]): 361.5% | EC50 (ΔF508-CFTR [2]): 96.5 nM

CC(C)c1nn(-c2ccccc2)c2nc(C(=O)NS(C)(=O)=O)cc(-c3ccc(N(C)C)cc3)c12 [Compound 7, 4-[4-(dimethylamino)phenyl]-N-(methanesulfonyl)-1-phenyl-3-(propan-2-yl)-1H-pyrazolo[3,4-b]pyridine-6-carboxamide]
% Activation (ΔF508-CFTR [1]): 420.63% | EC50 (ΔF508-CFTR [1]): 554 nM | % Activation (ΔF508-CFTR [2]): 245% | EC50 (ΔF508-CFTR [2]): 636 nM

CN1CCN(Cc2cc(C(=O)NS(C)(=O)=O)nc3c2c(C2CCC2)nn3-c2ccc(F)cc2)CC1 [Compound 518, 3-cyclobutyl-1-(4-fluorophenyl)-N-(methanesulfonyl)-4-[(4-methylpiperazin-1-yl)methyl]-1H-pyrazolo[3,4-b]pyridine-6-carboxamide]
% Activation (ΔF508-CFTR [1]): 189.55% | EC50 (ΔF508-CFTR [1]): 3130 nM | % Activation (ΔF508-CFTR [2]): 35.86%

COCC1CCN(c2cc(C(=O)N3CCCCS3(=O)=O)nc3c2c(C2CCC2)nn3-c2ccccc2)CC1 [Compound 668, 2-{3-cyclobutyl-4-[4-(methoxymethyl)piperidin-1-yl]-1-phenyl-1H-pyrazolo[3,4-b]pyridine-6-carbonyl}-1λ^6,2-thiazinane-1,1-dione]
% Activation (ΔF508-CFTR [1]): 307.4% | EC50 (ΔF508-CFTR [1]): 257 nM | % Activation (ΔF508-CFTR [2]): 89.495% | EC50 (ΔF508-CFTR [2]): 384 nM

CCOC(=O)N1CCC(c2cc(C(=O)NS(=O)(=O)N(C)C)nc3c2c(C(C)C)nn3-c2ccc(F)cc2)CC1 [Compound 497, ethyl 4-{6-[(dimethylsulfamoyl)carbamoyl]-1-(4-fluorophenyl)-3-(propan-2-yl)-1H-pyrazolo[3,4-b]pyridin-4-yl}piperidine-1-carboxylate]
% Activation (ΔF508-CFTR [1]): 378.25% | EC50 (ΔF508-CFTR [1]): 288 nM | % Activation (ΔF508-CFTR [2]): 195.7% | EC50 (ΔF508-CFTR [2]): 410 nM

CS(=O)(=O)NC(=O)c1cc(C2CCN(CC3CCOCC3)CC2)c2c(C3CCC3)nn(-c3ccc(F)cc3)c2n1 [Compound 600, 3-cyclobutyl-1-(4-fluorophenyl)-N-(methanesulfonyl)-4-{1-[(oxan-4-yl)methyl]piperidin-4-yl}-1H-pyrazolo[3,4-b]pyridine-6-carboxamide]
% Activation (ΔF508-CFTR [1]): 326.1% | EC50 (ΔF508-CFTR [1]): 1620 nM | % Activation (ΔF508-CFTR [2]): 126.5% | EC50 (ΔF508-CFTR [2]): 1210 nM

Cc1nn(-c2ccccc2)c2nc(C(=O)NS(C)(=O)=O)cc(-c3ccc(N4CCC(N(C)C)C4)cc3)c12 (stereo not drawn) [Compound 100, 4-{4-[3-(dimethylamino)pyrrolidin-1-yl]phenyl}-N-(methanesulfonyl)-3-methyl-1-phenyl-1H-pyrazolo[3,4-b]pyridine-6-carboxamide]
% Activation (ΔF508-CFTR [1]): 340.6% | EC50 (ΔF508-CFTR [1]): 3220 nM | % Activation (ΔF508-CFTR [2]): 113% | EC50 (ΔF508-CFTR [2]): 2480 nM

COc1cccc(-n2nc(C)c3c(-c4ccc(N5CCOCC5)cc4)cc(C(=O)NS(C)(=O)=O)nc32)c1 [Compound 72, N-(methanesulfonyl)-1-(3-methoxyphenyl)-3-methyl-4-[4-(morpholin-4-yl)phenyl]-1H-pyrazolo[3,4-b]pyridine-6-carboxamide]
% Activation (ΔF508-CFTR [1]): 400.9% | EC50 (ΔF508-CFTR [1]): 5610 nM | % Activation (ΔF508-CFTR [2]): 232.5% | EC50 (ΔF508-CFTR [2]): 2230 nM

O=C(NS(=O)(=O)N1CCC(F)CC1)c1cc(N2CCC(N3CCOCC3)CC2)c2c(C3CCC3)nn(-c3ccccc3)c2n1 [Compound 434, 3-cyclobutyl-N-(4-fluoropiperidine-1-sulfonyl)-4-[4-(morpholin-4-yl)piperidin-1-yl]-1-phenyl-1H-pyrazolo[3,4-b]pyridine-6-carboxamide]
% Activation (ΔF508-CFTR [1]): 470.37% | EC50 (ΔF508-CFTR [1]): 59.5 nM | % Activation (ΔF508-CFTR [2]): 245.2% | EC50 (ΔF508-CFTR [2]): 57.7 nM

CC(C)c1nn(-c2ccnc(N3CCOCC3)c2)c2nc(C(=O)NS(=O)(=O)N(C)C)cc(OCC3CCOCC3)c12 [Compound 489, N-(dimethylsulfamoyl)-1-[2-(morpholin-4-yl)pyridin-4-yl]-4-[(oxan-4-yl)methoxy]-3-(propan-2-yl)-1H-pyrazolo[3,4-b]pyridine-6-carboxamide]
% Activation (ΔF508-CFTR [1]): 280% | EC50 (ΔF508-CFTR [1]): 241 nM | % Activation (ΔF508-CFTR [2]): 99.6% | EC50 (ΔF508-CFTR [2]): 141 nM

CS(=O)(=O)NC(=O)c1cc(N2CCS(=O)(=O)CC2)c2c(C3CCC3)nn(-c3ccccc3)c2n1 [Compound 371, 3-cyclobutyl-4-(1,1-dioxo-1λ^6,4-thiazinan-4-yl)-N-(methanesulfonyl)-1-phenyl-1H-pyrazolo[3,4-b]pyridine-6-carboxamide]
% Activation (ΔF508-CFTR [1]): 271.9% | EC50 (ΔF508-CFTR [1]): 1930 nM | % Activation (ΔF508-CFTR [2]): 121.3% | EC50 (ΔF508-CFTR [2]): 2740 nM

CC(C)N1CCN(C2CCN(c3cc(C(=O)NS(=O)(=O)N(C)C)nc4c3c(C3CCC3)nn4C3CCCCC3)CC2)CC1 [Compound 553, 3-cyclobutyl-1-cyclohexyl-N-(dimethylsulfamoyl)-4-{4-[4-(propan-2-yl)piperazin-1-yl]piperidin-1-yl}-1H-pyrazolo[3,4-b]pyridine-6-carboxamide]
% Activation (ΔF508-CFTR [1]): 494.3% | EC50 (ΔF508-CFTR [1]): 233 nM | % Activation (ΔF508-CFTR [2]): 293% | EC50 (ΔF508-CFTR [2]): 1730 nM

O=C(NS(=O)(=O)N1CCC(N2CCCCC2)CC1)c1cc(N2CCC(N3CCOCC3)CC2)c2c(C3CCC3)nn(-c3ccccc3)c2n1 [Compound 453, N-([1,4'-bipiperidine]-1'-sulfonyl)-3-cyclobutyl-4-[4-(morpholin-4-yl)piperidin-1-yl]-1-phenyl-1H-pyrazolo[3,4-b]pyridine-6-carboxamide]
% Activation (ΔF508-CFTR [1]): 385.1% | EC50 (ΔF508-CFTR [1]): 319 nM | % Activation (ΔF508-CFTR [2]): 149.3% | EC50 (ΔF508-CFTR [2]): 403 nM

CC(C)c1nn(-c2cccc(N3CC(C)(C)C3)c2)c2nc(C(=O)NS(C)(=O)=O)cc(-c3ccc(N4CCOCC4)cc3)c12 [Compound 43, 1-[3-(3,3-dimethylazetidin-1-yl)phenyl]-N-(methanesulfonyl)-4-[4-(morpholin-4-yl)phenyl]-3-(propan-2-yl)-1H-pyrazolo[3,4-b]pyridine-6-carboxamide]
% Activation (ΔF508-CFTR [1]): 627% | EC50 (ΔF508-CFTR [1]): 289 nM | % Activation (ΔF508-CFTR [2]): 379.67% | EC50 (ΔF508-CFTR [2]): 299 nM

CN1CCCN(C(=O)c2cc(N3CCC(N4CCOCC4)CC3)c3c(C4CCC4)nn(-c4ccccc4)c3n2)S1(=O)=O [Compound 664, 2-{3-cyclobutyl-4-[4-(morpholin-4-yl)piperidin-1-yl]-1-phenyl-1H-pyrazolo[3,4-b]pyridine-6-carbonyl}-6-methyl-1λ^6,2,6-thiadiazinane-1,1-dione]
% Activation (ΔF508-CFTR [1]): 230.48% | EC50 (ΔF508-CFTR [1]): 172 nM | % Activation (ΔF508-CFTR [2]): 70.082% | EC50 (ΔF508-CFTR [2]): 278 nM

CCCN(C)S(=O)(=O)NC(=O)c1cc(N2CCC(N3CCOCC3)CC2)c2c(C3CCC3)nn(-c3ccccc3)c2n1 [Compound 432, 3-cyclobutyl-N-[methyl(propyl)sulfamoyl]-4-[4-(morpholin-4-yl)piperidin-1-yl]-1-phenyl-1H-pyrazolo[3,4-b]pyridine-6-carboxamide]
% Activation (ΔF508-CFTR [1]): 514.83% | EC50 (ΔF508-CFTR [1]): 65.9 nM | % Activation (ΔF508-CFTR [2]): 243.6% | EC50 (ΔF508-CFTR [2]): 119 nM
